As a reminder, the melting point is the temperature of the solid-liquid transition.

For `COc1ccc(C2CC(c3ccc(Cl)cc3Cl)=NN2c2nc(-c3ccccc3)cs2)cc1OC` (stereo not shown) [1a, 2-(3-(2,4-dichlorophenyl)-5-(3,4-dimethoxyphenyl)-4,5-dihydro-1H-pyrazol-1-yl)-4-phenylthiazole], the melting point was 120 to 122 °C. Under `COc1ccc(C2CC(c3ccc(Cl)cc3Cl)=NN2c2nc(-c3ccccc3)cs2)cc1` (stereo not shown) [1c, 2-(3-(2,4-dichlorophenyl)-5-(4-methoxyphenyl)-4,5-dihydro-1H-pyrazol-1-yl)-4-phenylthiazole] stands 72 to 75 °C; under `COc1ccc(C2CC(c3ccc(Cl)cc3Cl)=NN2c2nc(-c3ccc(Cl)cc3)cs2)cc1` (stereo not shown) [1d, 4-(4-chlorophenyl)-2-(3-(2,4-dichlorophenyl)-5-(4-methoxyphenyl)-4,5-dihydro-1H-pyrazol-1-yl)thiazole], 140 to 141 °C. Under `COc1ccc(C2CC(c3ccc(Cl)cc3Cl)=NN2c2nc(-c3ccc(Cl)cc3)cs2)cc1OC` (stereo not shown) [1b, 4-(4-chlorophenyl)-2-(3-(2,4-dichlorophenyl)-5-(3,4-dimethoxyphenyl)-4,5-dihydro-1H-pyrazol-1-yl)thiazole] stands 158 to 159 °C.

The values are drawn from US11805773B1, “Nanocomposite including water-soluble nano-polymer and mesoporous silica nanoparticles encapsulated with azole derivatives” (KING FAISAL UNIVERSITY, priority 2023, dated 2023).
